Legend:
[1] = biological target: T1, acyl CoA-cholesterol-acyl transferase (ACAT) (Mus musculus, UniProt Q61263); experiment: Determination of ACAT: inhibition of esterification of free intracellular cholesterol in macrophage line J 774; type: cell-based; settings: J774; macrophage line J 774, 24 hours, 10^-5 M, relative to placebo; read-out: percentage inhibition of ACAT activity of the macrophages
T1 construct: in the presence of a macrophage J 774 homogenate; endogenous in cells; host or cells: J774 macrophage line
T1 sequence (Q61263 1-540): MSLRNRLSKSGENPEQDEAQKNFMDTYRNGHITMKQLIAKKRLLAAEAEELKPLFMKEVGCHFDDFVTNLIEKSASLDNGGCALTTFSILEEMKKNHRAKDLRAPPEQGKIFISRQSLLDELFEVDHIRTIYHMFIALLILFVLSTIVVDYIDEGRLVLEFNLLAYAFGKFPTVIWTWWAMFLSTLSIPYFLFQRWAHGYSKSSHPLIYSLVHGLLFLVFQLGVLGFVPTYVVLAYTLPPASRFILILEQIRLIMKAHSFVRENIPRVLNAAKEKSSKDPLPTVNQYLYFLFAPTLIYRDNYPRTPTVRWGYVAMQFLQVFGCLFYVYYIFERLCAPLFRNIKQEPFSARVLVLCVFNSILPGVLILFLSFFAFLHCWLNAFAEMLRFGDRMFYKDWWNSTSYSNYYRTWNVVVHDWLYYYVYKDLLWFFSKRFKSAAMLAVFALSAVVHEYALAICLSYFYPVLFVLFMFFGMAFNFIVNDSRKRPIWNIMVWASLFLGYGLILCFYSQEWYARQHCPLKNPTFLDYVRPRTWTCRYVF
Description: The test products or the placebo are incubated in the presence of the macrophages for 24 hours at the concentration of 10^-5 M. The efficacy of these compounds is evaluated by calculating the ACAT activity of the macrophages incubated in the presence of a product relative to that of macrophages incubated in the presence of the placebo and is therefore expressed as a percentage inhibition.

human LDLs = experiment: Modification of the LDLs by copper sulfate (MDA production, lipid peroxidation); type: biochemical; settings: 24 hours, copper sulfate 5×10^-6 M; probucol as reference
Description: The human LDLs are incubated for 24 hours in the presence of copper sulfate (5×10^-6 M) with or without the test compounds (concentrations between 10^-7 M and 10^-4 M). After incubation, the peroxidation of the LDLs is evaluated by electrophoresis on agar gel and by the formation of one of the products of lipid peroxidation: malondialdehyde (MDA) according to the technique described by […] et al. (J. Clin. Invest. 77, 641-644, 1986).

[2] = biological target: T1, acyl CoA-cholesterol-acyl transferase (ACAT); experiment: Determination of ACAT: inhibition of esterification of free intracellular cholesterol in macrophage line J 774; type: cell-based
[3] = test system: hypercholesterolemic hamsters; experiment: Effect in hypercholesterolemic hamsters (total plasma cholesterol); type: in vivo, Syrian golden hamsters; settings: orally, 10 mg/kg/day
Description: Syrian golden hamsters were subjected to a 0.2% hypercholesterolemic diet for 3 weeks. They were then treated orally either by the vehicle for the compounds tested (control group), or by a reference product, or by an original product at the dose of 10 mg/kg/day for 2 weeks. At the end of the treatment, the total cholesterol was measured in the plasma.

SMILES	inhibition at 10 µM [1] [%]	further results
CCCCCCCCCC(C)C(=O)Nc1cc(C)c(O)c(C)c1C (stereo not drawn) [Example 4, 2,3,6-Trimethyl-4-(2-methylundecanamido)phenol]	91	–
CCCCCCCCCCC(C)(C)C(=O)Nc1c(OC)cc(OC)cc1OC [Ref. 2, 2,4,6-trimethoxy-(2,2-dimethyldodecanamido)benzene]	–	antioxidant activity towards human LDLs (in words) (human LDLs): completely lack this activity
CCCCC/C=C\C/C=C\CCCCCCCC(=O)Nc1cc(C)c(O)c(C)c1C [Example 21, 2,3,6-Trimethyl-4-(9,12-octadecadienamido)phenol cis, cis isomer]	90	–
CCCCCCCCCCC(C)(C)C(=O)Nc1cc(C)c(O)c(C)c1C [Example 15, 2,3,6-Trimethyl-4-(2,2-dimethyldodecanamido)phenol]	93	–
CCCCCCCCCCC1(C(=O)Nc2cc(C)c(O)c(C)c2C)CCCC1 [Example 57, 2,3,6-Trimethyl-4-[(1-decyl-cyclopent-1-yl)carboxamido]phenol]	98	–
CCCCCC=CCC=CCC=CCCCCC(=O)Nc1cc(C)c(O)c(C)c1C [Example 23, 2,3,6-Trimethyl-4-(6,9,12-octadecatrienamido)phenol]	94	–

The next lines start with results.

inhibition at 10 µM [1] [%]	SMILES	further results
97	CCCCC/C=C\C/C=C\CCCCCCC(C)C(=O)Nc1cc(C)c(O)c(C)c1C (stereo not drawn) [Example 58, 2,3,6-Trimethyl-4-(2-methyl-9,12-octadecadienamido)phenol, cis, cis isomer]	–
96	CCCCCCCCCCCC(C)(C)C(=O)Nc1cc(C)c(O)c(C)c1C [Example 16, 2,3,6-Trimethyl-4-(2,2-dimethyltridecanamido)phenol]	–
75	CCCCCCCC/C=C\CCCCCCCC(=O)Nc1c(OC)cc(OC)cc1OC [Ref. 1, 2,4,6-trimethoxy-(9-(Z)octadecenamido)benzene]	antioxidant activity towards human LDLs (in words) (human LDLs): completely lack this activity; IC50 [2]: 3 µM
95	CCCCCCCC/C=C\CCCCCCC(C)C(=O)Nc1cc(C)c(O)c(C)c1C (stereo not drawn) [Example 20, 2,3,6-Trimethyl-4-(2-methyl-9-octadecenamido)phenol cis isomer]	hypocholesterolemiant activity, level of total plasma cholesterol ([3]; 15 days (2 weeks), 0.2% hypercholesterolemic diet): normalizes the level of cholesterol in the hypercholesterolemic animals; hypocholesterolemiant activity compared with reference products (Ref. 1 and Ref. 2) ([3]; same conditions): considerably higher than that of the reference products tested
92	CCCCCCCCCC(C)(C)C(=O)Nc1cc(C)c(O)c(C)c1C [Example 14, 2,3,6-Trimethyl-4-(2,2-dimethylundecanamido)phenol]	–

— patent publication US5254590A, “Acylaminophenol compounds” (Adir et Compagnie, priority 1991, dated 1993)
